Measured values taken from patent US20040092401A1, “Novel alpha-sulfin and alpha-sulfonamino amide derivatives” (priority 2000, published 2004).
Read-outs that look alike come from different tables or passages of the source.

How the values were obtained:
[1] = tested on: Phytophthora (late blight); assay: whole plant or invertebrate; type: in vivo; settings: in Solanum lycopersicum, read-out: inhibit fungal infestation
[2] = tested on: Phytophthora (late blight); assay: whole plant or invertebrate; type: in vivo; settings: in Solanum tuberosum, read-out: inhibit fungal infestation
Plasmopara viticola = settings: read-out: inhibit fungal infestation
Experimental: 5 week old grape seedlings cv. Gutedel are treated with the formulated test compound in a spray chamber. One day after application grape plants are inoculated by spraying a sporangia suspension (4×104 sporangia/ml) on the lower leaf side of the test plants. After an incubation period of 6 days at +21° C. and 95% r. h. in a greenhouse the disease incidence is assessed.

In the case of `CCS(=O)(=O)N[C@H](C(=O)NCCc1ccc(OCC#Cc2ccc(Cl)cc2)cc1)C(C)C` [Compound A1.1, (S)-2-Ethanesulfonylamino-N-(2-{4-[3-(4-chloro-phenyl)-propargyloxvy]-phenyl}-ethyl)-3-methyl-butyramide], the inhibition at 200 ppm [1] is reported as no less than 80%, the inhibition at 200 ppm [2] is reported as no less than 80% and the inhibition at 200 ppm (Plasmopara viticola) is reported as no less than 80%.
For `CCS(=O)(=O)N[C@H](C(=O)NCCc1ccc(OCc2ccccc2)cc1)C(C)C`, the melting point was 133 to 134 °C.
